From patent publication US20250041461A1, “[177LU] LUTETIUM-PSMA I&T COMPOSITION AND DOSIMETRY, KIT, METHOD OF MAKING, AND METHOD OF USING THEREOF” (Curium US LLC, priority 2023, published 2025)

Assay: Eclipse PK and dosimetry sub-study, 27 patients, cycle 1 biodistribution and dosimetry (SPECT/CT, OLINDA 2.2.3)
Type: in vivo, human
Settings: for Absorbed Dose Mean (SD): ECLIPSE, after Cycle 1; for Absorbed Dose in Cycle 1, Mean / Absorbed Dose in Cycle 1, min: N = 16
Description: Data Acquisition: All participating sites underwent a rigorous site setup process during which all dose calibrators, scanners, and gamma counters used in the sub-study were calibrated. Sites were allowed to enroll patients in the sub-study only after the completion and approval of all site setup processes by Invicro.
Patients underwent SPECT/CT imaging, with anatomical coverage typically extending from the salivary glands to the pelvis, following the administration of a targeted 7.4±10% GBq of ^177Lu-PSMA-I&T at cycle 1. SPECT/CT imaging was performed at four timepoints: 4 h, 24 h, 48 h, and 168 h post-injection. Additionally, a subset of patients imaged at Cycle 1 (16 out of 27), were also imaged at Cycle 3 (Table 7 in Appendix 1).
Image acquisition and reconstruction protocols were standardized across all imaging timepoints and patients at each site. Furthermore, each site consistently utilized the same SPECT/CT scanner throughout the duration of the study to ensure uniformity.
In general, raw projection data was acquired into a 128×128 matrix with medium energy general purpose (MEGP) collimation using a step and shoot acquisition mode, acquiring 60 projections per detector (180 degrees rotation per detector), 20 seconds per projection, with an acquisition zoom of 1.0, and a 20% (±10%) energy window centered over 208 keV.
A low-dose CT scan was performed prior to beginning the SPECT scan for attenuation correction. Sites were instructed to use the Institutional standard parameters for acquisition of the low-dose CT. Institutional standard reconstruction parameters were used. Scatter correction was required to be applied using a 20% (±10%) scatter window centered over 170 keV.
The imaging data was analysed using Invicro's VivoQuant software, a validated software used in a 21 CFR § 11-compliant workflow. The general quantification approach was based on the principles detailed in the Medical Internal Radiation Dose (MIRD) Pamphlet No. 16,^1 No 23,2 and No 26,3 as appropriate.
SPECT images were calibrated in units of Becquerel (Bq) using a calibration factor derived from a source of known activity, measured during site set up with the same acquisition and reconstruction parameters employed for patient imaging. A patient-specific calibration factor was also derived at each clinical time point after acquisition of the patient SPECT/CT. As a quality control measure, if the patient-specific calibration factor differed by more than 10% from the site set up calibration factor, an investigation was conducted.
Volume of interest (VOI) (kidneys, bladder, liver, lumbar vertebrae L2-L4, lacrimal glands, salivary glands [parotid and submandibular glands], and whole body) were delineated on each dataset by a trained image analyst. […] Organs were segmented either by drawing the entire contour of the organ, or by placing a sphere in a representative region of the organ and then multiplying by the organ's effective mass (based on patient's height and weight).^4 Segmentation methods for each organ are specified in Table 1 and were consistently applied to each patient.
Clearance of the radiopharmaceutical was derived from a data-appropriate fit of each organ's TAC. Depending on the TAC's shape, the data was fitted with the sum of one, two, or three exponentials, or using a rise and fall model. Fitting was performed with in-house Python software. TIACs were calculated through analytical integration of the curve fit extrapolated to infinity. […] A whole-body TAC was derived from delineating the imaged body. The remainder activity was determined by subtracting the cumulative organ TIACs from the whole body TIAC.
Organ TIACs were input into OLINDA 2.2.3 for the computation of organ and whole-body absorbed doses, using International Commission on Radiological Protection (ICRP)-103 weighing factors. The ICRP-89 derived male phantom was used for dose estimation. […]

[1] = Cycle 1, n = 26, patient 12-004 excluded
[2] = Lacrimal Glands (OLINDA sphere model)

O=C([O-])CC[C@H](NC(=O)N[C@@H](CCCCNC(=O)CCCCCCC(=O)NCCCC[C@@H](NC(=O)[C@@H](Cc1ccccc1)NC(=O)[C@@H](Cc1ccc(O)c(I)c1)NC(=O)CC[C@H](C(=O)[O-])N1CCN(CC(=O)[O-])CCN(CC(=O)[O-])CCN(CC(=O)[O-])CC1)C(=O)[O-])C(=O)[O-])C(=O)[O-].[177Lu+3].[H+].[H+].[H+].[H+].[H+] [^177Lu-PSMA I&T, (3S,7S,26R,29R,32R,37R)-29-benzyl-32-(4-hydroxy-3-iodobenzyl)-5,13,20,28,31,34-hexaoxo-37-(4,7,10-tris(carboxymethyl)-1,4,7,10-tetraazacyclododecan-1-yl)-4,6,12,21,27,30,33-heptaazaheptatriacontane-1,3,7,26,37-pentacarboxylic acid; lutetium-177 (III)]
Absorbed Dose Mean (SD) (Bladder): 0.41 (0.05) Gy/GBq
Absorbed Dose Mean (SD) (Bone Marrow): 0.08 (0.12) Gy/GBq
Absorbed Dose, Adrenals, Mean (Cycle 1, n = 26): 0.02 Gy/GBq
Absorbed Dose, Adrenals, max (Cycle 1, n = 26): 0.08 Gy/GBq
Absorbed Dose, Adrenals, median (Cycle 1, n = 26): 0.02 Gy/GBq
Absorbed Dose, Adrenals, min (Cycle 1, n = 26): 0.01 Gy/GBq
Absorbed Dose, Brain, Mean (Cycle 1, n = 26): 0.01 Gy/GBq
Absorbed Dose, Brain, max (Cycle 1, n = 26): 0.07 Gy/GBq
Absorbed Dose, Brain, median (Cycle 1, n = 26): 0.01 Gy/GBq
Absorbed Dose, Brain, min (Cycle 1, n = 26): 0.00 Gy/GBq
Absorbed Dose, Esophagus, Mean (Cycle 1, n = 26): 0.02 Gy/GBq
Absorbed Dose, Esophagus, max (Cycle 1, n = 26): 0.07 Gy/GBq
Absorbed Dose, Esophagus, median (Cycle 1, n = 26): 0.01 Gy/GBq
Absorbed Dose, Esophagus, min (Cycle 1, n = 26): 0.00 Gy/GBq
Absorbed Dose, Eyes, Mean (Cycle 1, n = 26): 0.01 Gy/GBq
Absorbed Dose, Eyes, max (Cycle 1, n = 26): 0.07 Gy/GBq
Absorbed Dose, Eyes, median (Cycle 1, n = 26): 0.01 Gy/GBq
Absorbed Dose, Eyes, min (Cycle 1, n = 26): 0.00 Gy/GBq
Absorbed Dose, Gallbladder wall, Mean (Cycle 1, n = 26): 0.02 Gy/GBq
Absorbed Dose, Gallbladder wall, max (Cycle 1, n = 26): 0.07 Gy/GBq
Absorbed Dose, Gallbladder wall, median (Cycle 1, n = 26): 0.01 Gy/GBq
Absorbed Dose, Gallbladder wall, min (Cycle 1, n = 26): 0.00 Gy/GBq
Absorbed Dose, Heart wall, Mean (Cycle 1, n = 26): 0.02 Gy/GBq
Absorbed Dose, Heart wall, max (Cycle 1, n = 26): 0.07 Gy/GBq
Absorbed Dose, Heart wall, median (Cycle 1, n = 26): 0.01 Gy/GBq
Absorbed Dose, Heart wall, min (Cycle 1, n = 26): 0.00 Gy/GBq
Absorbed Dose, Kidneys, Mean (Cycle 1, n = 26): 0.41 Gy/GBq
Absorbed Dose, Kidneys, max (Cycle 1, n = 26): 0.81 Gy/GBq
Absorbed Dose, Kidneys, median (Cycle 1, n = 26): 0.37 Gy/GBq
Absorbed Dose, Kidneys, min (Cycle 1, n = 26): 0.17 Gy/GBq
Absorbed Dose, Lacrimal Glands, Mean (Cycle 1, n = 26): 0.40 Gy/GBq
Absorbed Dose, Lacrimal Glands, max (Cycle 1, n = 26): 1.19 Gy/GBq
Absorbed Dose, Lacrimal Glands, median (Cycle 1, n = 26): 0.26 Gy/GBq
Absorbed Dose, Lacrimal Glands, min (Cycle 1, n = 26): 0.04 Gy/GBq
Absorbed Dose, Left colon, Mean (Cycle 1, n = 26): 0.47 Gy/GBq
Absorbed Dose, Left colon, max (Cycle 1, n = 26): 1.53 Gy/GBq
Absorbed Dose, Left colon, median (Cycle 1, n = 26): 0.41 Gy/GBq
Absorbed Dose, Left colon, min (Cycle 1, n = 26): 0.01 Gy/GBq
Absorbed Dose, Liver, Mean (Cycle 1, n = 26): 0.04 Gy/GBq
Absorbed Dose, Liver, max (Cycle 1, n = 26): 0.10 Gy/GBq
Absorbed Dose, Liver, median (Cycle 1, n = 26): 0.03 Gy/GBq
Absorbed Dose, Liver, min (Cycle 1, n = 26): 0.01 Gy/GBq
Absorbed Dose, Lungs, Mean (Cycle 1, n = 26): 0.01 Gy/GBq
Absorbed Dose, Lungs, max (Cycle 1, n = 26): 0.07 Gy/GBq
Absorbed Dose, Lungs, median (Cycle 1, n = 26): 0.01 Gy/GBq
Absorbed Dose, Lungs, min (Cycle 1, n = 26): 0.00 Gy/GBq
Absorbed Dose, Osteogenic cells, Mean (Cycle 1, n = 26): 0.05 Gy/GBq
Absorbed Dose, Osteogenic cells, max (Cycle 1, n = 26): 0.29 Gy/GBq
Absorbed Dose, Osteogenic cells, median (Cycle 1, n = 26): 0.02 Gy/GBq
Absorbed Dose, Osteogenic cells, min (Cycle 1, n = 26): 0.00 Gy/GBq
Absorbed Dose, Pancreas, Mean (Cycle 1, n = 26): 0.02 Gy/GBq
Absorbed Dose, Pancreas, max (Cycle 1, n = 26): 0.07 Gy/GBq
Absorbed Dose, Pancreas, median (Cycle 1, n = 26): 0.01 Gy/GBq
Absorbed Dose, Pancreas, min (Cycle 1, n = 26): 0.00 Gy/GBq
Absorbed Dose, Prostate, Mean (Cycle 1, n = 26): 0.02 Gy/GBq
Absorbed Dose, Prostate, max (Cycle 1, n = 26): 0.07 Gy/GBq
Absorbed Dose, Prostate, median (Cycle 1, n = 26): 0.01 Gy/GBq
Absorbed Dose, Prostate, min (Cycle 1, n = 26): 0.01 Gy/GBq
Absorbed Dose, Rectum, Mean (Cycle 1, n = 26): 0.44 Gy/GBq
Absorbed Dose, Rectum, max (Cycle 1, n = 26): 1.46 Gy/GBq
Absorbed Dose, Rectum, median (Cycle 1, n = 26): 0.39 Gy/GBq
Absorbed Dose, Rectum, min (Cycle 1, n = 26): 0.01 Gy/GBq
Absorbed Dose, Red Marrow, Mean (Cycle 1, n = 26): 0.08 Gy/GBq
Absorbed Dose, Red Marrow, max (Cycle 1, n = 26): 0.49 Gy/GBq
Absorbed Dose, Red Marrow, median (Cycle 1, n = 26): 0.03 Gy/GBq
Absorbed Dose, Red Marrow, min (Cycle 1, n = 26): 0.00 Gy/GBq
Absorbed Dose, Right Colon, max (Cycle 1, n = 26): 0.82 Gy/GBq
Absorbed Dose, Right Colon, median (Cycle 1, n = 26): 0.22 Gy/GBq
Absorbed Dose, Right Colon, min (Cycle 1, n = 26): 0.01 Gy/GBq
Absorbed Dose, Right colon, Mean (Cycle 1, n = 26): 0.25 Gy/GBq
Absorbed Dose, Small intestine, Mean (Cycle 1, n = 26): 0.05 Gy/GBq
Absorbed Dose, Small intestine, max (Cycle 1, n = 26): 0.15 Gy/GBq
Absorbed Dose, Small intestine, median (Cycle 1, n = 26): 0.04 Gy/GBq
Absorbed Dose, Small intestine, min (Cycle 1, n = 26): 0.01 Gy/GBq
Absorbed Dose, Spleen, Mean (Cycle 1, n = 26): 0.03 Gy/GBq
Absorbed Dose, Spleen, max (Cycle 1, n = 26): 0.11 Gy/GBq
Absorbed Dose, Spleen, median (Cycle 1, n = 26): 0.02 Gy/GBq
Absorbed Dose, Spleen, min (Cycle 1, n = 26): 0.01 Gy/GBq
Absorbed Dose, Stomach Wall, Mean (Cycle 1, n = 26): 0.02 Gy/GBq
Absorbed Dose, Stomach Wall, max (Cycle 1, n = 26): 0.07 Gy/GBq
Absorbed Dose, Stomach Wall, median (Cycle 1, n = 26): 0.01 Gy/GBq
Absorbed Dose, Stomach Wall, min (Cycle 1, n = 26): 0.00 Gy/GBq
Absorbed Dose, Testes, Mean (Cycle 1, n = 26): 0.01 Gy/GBq
Absorbed Dose, Testes, max (Cycle 1, n = 26): 0.07 Gy/GBq
Absorbed Dose, Testes, median (Cycle 1, n = 26): 0.01 Gy/GBq
Absorbed Dose, Testes, min (Cycle 1, n = 26): 10.00 Gy/GBq
Absorbed Dose, Thymus, Mean (Cycle 1, n = 26): 0.01 Gy/GBq
Absorbed Dose, Thymus, max (Cycle 1, n = 26): 0.07 Gy/GBq
Absorbed Dose, Thymus, median (Cycle 1, n = 26): 0.01 Gy/GBq
Absorbed Dose, Thymus, min (Cycle 1, n = 26): 0.00 Gy/GBq
Absorbed Dose, Thyroid, Mean (Cycle 1, n = 26): 0.01 Gy/GBq
Absorbed Dose, Thyroid, max (Cycle 1, n = 26): 0.07 Gy/GBq
Absorbed Dose, Thyroid, median (Cycle 1, n = 26): 0.01 Gy/GBq
Absorbed Dose, Thyroid, min (Cycle 1, n = 26): 0.00 Gy/GBq
Absorbed Dose, Total Body, Mean (Cycle 1, n = 26): 0.02 Gy/GBq
Absorbed Dose, Total Body, max (Cycle 1, n = 26): 0.09 Gy/GBq
Absorbed Dose, Total Body, median (Cycle 1, n = 26): 0.02 Gy/GBq
Absorbed Dose, Total Body, min (Cycle 1, n = 26): 0.01 Gy/GBq
Absorbed Dose, Urinary Bladder wall, Mean (Cycle 1, n = 26): 0.41 Gy/GBq
Absorbed Dose, Urinary Bladder wall, max (Cycle 1, n = 26): 0.50 Gy/GBq
Absorbed Dose, Urinary Bladder wall, median (Cycle 1, n = 26): 0.41 Gy/GBq
Absorbed Dose, Urinary Bladder wall, min (Cycle 1, n = 26): 0.33 Gy/GBq
absorbed dose, kidneys (Cycle 1, n = 26): 0.41±0.15 Gy/GBq
absorbed dose, left colon (Cycle 1, n = 26): 0.47±0.31 Gy/GBq
absorbed dose, rectum (Cycle 1, n = 26): 0.44±0.30 Gy/GBq
absorbed dose, urinary bladder (Cycle 1, n = 26): 0.41±0.05 Gy/GBq
Absorbed Dose, Salivary Glands, Mean [1]: 0.19 Gy/GBq
Absorbed Dose, Salivary Glands, max [1]: 0.80 Gy/GBq
Absorbed Dose, Salivary Glands, median [1]: 0.15 Gy/GBq
Absorbed Dose, Salivary Glands, min [1]: 0.03 Gy/GBq
Absorbed Dose Mean (SD) (Heart): 0.02 (0.02) Gy/GBq
Absorbed Dose Mean (SD) (Kidneys): 0.41 (0.15) Gy/GBq
Absorbed Dose in Cycle 1, Mean [2]: 0.39 Gy/GBq
Absorbed Dose in Cycle 1, min [2]: 0.04 Gy/GBq
Absorbed Dose Mean (SD) (Lacrimal Glands): 0.40 (0.36) Gy/GBq
Absorbed Dose Mean (SD) (Left Colon): 0.47 (0.31) Gy/GBq
Absorbed Dose Mean (SD) (Liver): 0.04 (0.02) Gy/GBq
Absorbed Dose in Cycle 1, min (Liver): 0.0 Gy/GBq
Absorbed Dose Mean (SD) (Right Colon): 0.25 (0.17) Gy/GBq
Absorbed Dose Mean (SD) (Salivary Glands): 0.19 (0.16) Gy/GBq
Absorbed Dose Mean (SD) (Spleen): 0.03 (0.02) Gy/GBq
Absorbed Dose in Cycle 1, Mean (Testes): 0.0 Gy/GBq
Absorbed Dose Mean (SD) (Thyroid): 0.01 (0.02) Gy/GBq
Absorbed Dose in Cycle 1, Mean (Urinary Bladder wall): 0.40 Gy/GBq
absorbed dose, lacrimal glands (cycle 1): 0.40±0.36 Gy/GBq
mean absorbed dose, bone marrow (red marrow) (cycle 1, image-based (L2-L4)): 0.08±0.12 Gy/GBq
absorbed dose, salivary glands (cycle 1, patient 12-004 excluded): 0.19±0.16 Gy/GBq
